Measurements published in PMC9695821, “Synthesis and Evaluation of NF-κB Inhibitory Activity of Mollugin Derivatives” (Molecules, 2022).
Marks after values point to notes of the source that are not given here.

Assays:
[1] = tested on: NF-κB transcriptional activity; assay: NF-κB luciferase reporter assay in HeLa cells; format: cell-based; conditions: Homo sapiens, NF-κB luciferase reporter, 24 h treatment, hypoxic conditions, mean, n = 3
Procedure: A NF-κB-Luc plasmid for NF-κB luciferase reporter assay was obtained from Strategene (La Jolla, CA, USA). Transfections were performed as previously described. NF-κB-dependent luciferase activity was measured using the Dual-luciferase reporter assay system. Briefly, HeLa cells (1 × 10^5 cells/well) were seeded in a 96-well plate for 24 h. The cells were then transfected with plasmids for each well and then incubated for a transfection period of 24 h. […] Luciferase activity was determined in MicroLumat plus luminometer (EG&G Berthold, Bad Wildbad, Germany) by injecting 100 µL of assay buffer containing luciferin and measuring light emission for 10 s. Co-transfection with pRL-CMV (Promega, Madison, WI, USA), which expresses Renilla luciferase, was performed to enable normalization of data for transfection efficiency.

[2] = MTT cytotoxicity / cell viability assay; format: cell-based; conditions: human; MTT assay, HeLa cells, 24 h treatment, normoxic conditions; mean, n = 3
Procedure: HeLa cells were inoculated and cultured in 96-well plates. After the cells adhered to the wall, the prepared target compounds with different concentrations were added to all plates for 24 h and then cultured in 5 mg/mL MTT solution for 4 h. The culture solution in the holes was sucked out, and DMSO reagent was added. After the crystallization was fully dissolved, the absorbance at 570 nm was measured by Multiskan GO.

xylene-induced ear edema [3] = assay: Xylene-induced ear edema test, initial screening (i.p.); format: in vivo; conditions: mice; for inhibition in vivo at 100 mg/kg: Mus musculus, ip, 0.5 h, n = 6, read-out: Inhibition Rate; for Edema Mean ± SD: 100 mg/kg, n = 6
Procedure: In vivo inhibition test of xylene induced ear edema in mice was performed to evaluate its anti-inflammatory activity.
In the initial screening, mice (male) were randomly divided into experimental group, positive control drug ibuprofen and Mesalazine group, and blank group. All target compounds were dissolved in dimethyl sulfoxide, and corresponding drugs were intraperitoneally injected into experimental group, positive control group and blank group, respectively. Mice were treated with 100 mg/kg, 0.1 mL/20 g body weight, and control mice received only DMSO (0.1 mL/20 g body weight). After 30 min, 20 μL of xy-lene was evenly applied on both sides of the right ear of the mice. After 30 min of xy-lene was applied, the mice were sacrificed by cutting off their necks. Then the left and right ears of the mice were drilled with a hole punch with a diameter of 7 mm, respec-tively, to obtain two round ear pieces. The degree of swelling (right ear mass–left ear mass) was calculated for each sample, and the swelling inhibition rate of each drug was calculated using the following formula. The inhibition rate of swelling degree (%) = (mean ear swelling degree of mice in blank group […] mean ear swelling degree of mice in target compound group)/mean ear swelling degree of mice in blank group × 100%. The data were processed by GraphPadPrism 5 and expressed as mean data ± SEM. One-way ANOVA method was used for statistical analysis of relevant data. A value of p < 0.05 in the chart indicates significant and statistically significant data dif-ference.

xylene-induced ear edema [4] = assay: Xylene-induced ear edema test, deep screening (oral); format: in vivo; conditions: mice
Procedure: In the deep screening, mice were divided into target compound group, positive control group (ibuprofen), and blank group (8 male mice in each group). Target com-pound and ibuprofen were dissolved in sodium carboxymethyl cellulose aqueous solu-tion (sodium carboxymethyl cellulose to water, mass ratio 1:1000); the blank group was sodium carboxymethyl cellulose aqueous solution (sodium carboxymethyl cellu-lose to water, mass ratio 1:1000). The anti-inflammatory activities of each compound in the target compound group, positive control group, and blank group were measured at 1, 2, 3, 4, 6, 9, 12 and 24 h after taking the drug. The experimental operation and calculation method are the same as the initial screening part.

| Structure (SMILES) | IC50 [1] [µM] | IC50 at 24 h [2] [µM] | inhibition in vivo at 100 mg/kg (xylene-induced ear edema [3]) [%] | Edema Mean ± SD (xylene-induced ear edema [3]) [mg] | melting point [°C] | also measured |
| --- | --- | --- | --- | --- | --- | --- |
| COC(=O)c1c2c(c3ccccc3c1OCC(=O)Nc1ccccc1)OC(C)(C)C=C2 [Compound 4a, Methyl 2,2-dimethyl-6-(2-oxo-2-(phenylamino)ethoxy)-2H-benzo [h] chromene-5-carboxyate] | > 100 | > 100 | 38.6 | 4.0500 ± 0.6188 | 118 to 120 | – |
| COC(=O)c1c2c(c3ccccc3c1OCC(=O)Nc1ccc(Cl)cc1)OC(C)(C)C=C2 [Compound 4b, Methyl 6-(2-((4-chlorophenyl)amino)-2-oxoethoxy)-2,2-dimethyl-2H-benzo [h] chromene-5-carboxylate] | > 100 | > 100 | 55.8 | 2.9167 ± 0.8029 | 122 to 124 | – |
| COC(=O)c1c2c(c3ccccc3c1OCC(=O)Nc1ccc(Br)cc1)OC(C)(C)C=C2 [Compound 4c, Methyl 6-(2-((4-bromophenyl)amino)-2-oxoethoxy)-2,2-dimethyl-2H-Benzo [h] chromene-5-carboxylate] | > 100 | > 100 | 49.2 | 3.3500 ± 1.0579 | 125 to 127 | – |
| COC(=O)c1c2c(c3ccccc3c1OCC(=O)Nc1ccccc1C)OC(C)(C)C=C2 [Compound 4g, Methyl 2,2-dimethyl-6-(2-oxo-2-(o-tolylamino)ethoxy)-2H-Benzo [h] chromene-5-carboxylate] | > 100 | > 100 | 42.4 | 3.8000 ± 0.5066 | 122 to 124 | – |
| COC(=O)c1c2c(c3ccccc3c1OCC(=O)Nc1cccc(C)c1)OC(C)(C)C=C2 [Compound 4h, Methyl 2,2-dimethyl-6-(2-oxo-2-(m-tolylamino)ethoxy)-2H-benzo [h] chromene-5-carboxylate] | > 100 | > 100 | 62.4 | 2.4833 ± 1.5464 | 122 to 124 | – |
| COC(=O)c1c2c(c3ccccc3c1OCC(=O)NC1CCN(Cc3ccccc3)CC1)OC(C)(C)C=C2 [Compound 6a, Methyl 6-(2-((1-benzylpiperidin-4-yl)amino)-2-oxoethoxy)-2,2-dimethyl-2H-benzo [h] chromene-5-carboxylate] | 49.3 | > 100 | 56.6 | 2.8667 ± 1.2645 | 115 to 117 | – |
| COC(=O)c1c2c(c3ccccc3c1OCC(=O)Nc1ccncc1C)OC(C)(C)C=C2 [Compound 6b, Methyl 2,2-dimethyl-6-(2-((3-methylpyridin-4-yl)amino)-2-oxoethoxy)-2H-benzo [h] chromene-5-carboxylate] | 41.9 | > 100 | 63.1 | 2.4333 ± 0.1795 | 123 to 125 | – |
| COC(=O)c1c2c(c3ccccc3c1OCC(=O)NCc1ccc(Cl)cc1)OC(C)(C)C=C2 [Compound 6c, Methyl 6-(2-((4-chlorobenzyl)amino)-2-oxoethoxy)-2,2-dimethyl-2H-benzo [h] chromene-5-carboxylate] | 23.1 | > 100 | 73.2 | 1.7667 ± 0.3037 | 130 to 132 | – |
| COC(=O)c1c2c(c3ccccc3c1OCC(=O)Nc1ccncc1)OC(C)(C)C=C2 [Compound 6e, Methyl 2,2-dimethyl-6-(2-oxo-2-(pyridin-4-ylamino)ethoxy)-2H-benzo [h] chromene-5-carboxylate] | > 100 | > 100 | 65.9 | 2.2500 ± 0.3403 | 126 to 128 | – |
| COC(=O)c1c2c(c3ccccc3c1OCC(=O)NC1CC1)OC(C)(C)C=C2 [Compound 6f, Methyl 6-(2-(cyclopropylamino)-2-oxoethoxy)-2,2-dimethyl-2H-benzo [h] chromene-5-carboxylate] | > 100 | > 100 | 57.3 | 2.8167 ± 0.6962 | 134 to 136 | – |
| COC(=O)c1c2c(c3ccccc3c1OCC(=O)NC(c1ccccc1)c1ccccc1)OC(C)(C)C=C2 [Compound 6g, Methyl 6-(2-(benzhydrylamino)-2-oxoethoxy)-2,2-Dimethyl-2H-benzo [h] chromene-5-carboxylate] | > 100 | > 100 | 58.6 | 2.7333 ± 0.4819 | 127 to 129 | – |
| COC(=O)c1c2c(c3ccccc3c1OCC(=O)Nc1cnccn1)OC(C)(C)C=C2 [Compound 6h, Methyl 2,2-dimethyl-6-(2-oxo-2-(pyrazin-2-ylamino)ethoxy)-2H-benzo [h] chromene-5-carboxylate] | 4.93 | > 100 | 72.7 | 1.8000 ± 0.6880 | 121 to 123 | – |
| COC(=O)c1c2c(c3ccccc3c1OCC(=O)Nc1ccc(C)nc1)OC(C)(C)C=C2 [Compound 6i, Methyl 2,2-dimethyl-6-(2-((6-methylpyridin-3-yl)amino)-2-oxoethoxy)-2H-benzo [h] chromene-5-carboxylate] | > 100 | > 100 | 42.9 | 3.7667 ± 1.1571 | 119 to 121 | – |
| COC(=O)c1c2c(c3ccccc3c1OCC(=O)Nc1cccc3cccnc13)OC(C)(C)C=C2 [Compound 6j, Methyl 2,2-dimethyl-6-(2-oxo-2-(quinolin-8-ylamino)ethoxy)-2H-benzo [h] chromene-5-carboxylate] | 18.6 | > 100 | 75.2 | 1.6333 ± 0.4384 | 113 to 115 | – |
| COC(=O)c1c2c(c3ccccc3c1OCC(=O)Nc1ccc3ccccc3n1)OC(C)(C)C=C2 [Compound 6k, Methyl 2,2-dimethyl-6-(2-oxo-2-(quinolin-2-ylamino)ethoxy)-2H-benzo [h] chromene-5-carboxylate] | > 100 | > 100 | 66.9 | 2.1833 ± 0.6414 | 116 to 118 | – |
| COC(=O)c1c2c(c3ccccc3c1O)OC(C)(C)C=C2 [Mollugin] | > 100 | > 100 | 54 | 3.0333 ± 0.9655 | – | – |
| CC(C)Cc1ccc(C(C)C(=O)O)cc1 (centres unmarked) [ibuprofen, reference compound] | – | – | 49.8 | 3.3167 ± 0.5550 | – | Inhibition (xylene-induced ear edema [4]; 100 mg/kg, time 1 h): 22.98% ***; Inhibition (xylene-induced ear edema [4]; 100 mg/kg, time 2 h): 33.33% ***; Inhibition (xylene-induced ear edema [4]; 100 mg/kg, time 3 h): 44.95% ***; Inhibition (xylene-induced ear edema [4]; 100 mg/kg, time 4 h): 47.47%; Inhibition (xylene-induced ear edema [4]; 100 mg/kg, time 4 h, listed as Ibuprfen): 47.47% ***; Inhibition (xylene-induced ear edema [4]; 100 mg/kg, time 6 h (Table 5)): 44.44% ***; Inhibition (xylene-induced ear edema [4]; 100 mg/kg, time 9 h): 34.60% ***; Inhibition (xylene-induced ear edema [4]; 100 mg/kg, time 12 h): 19.95% **; Inhibition (xylene-induced ear edema [4]; 100 mg/kg, time 24 h): 14.65% *; Inhibition (xylene-induced ear edema [4]; dose series, 25 mg/kg, 6 h): 28.95% *; Inhibition (xylene-induced ear edema [4]; dose series, 50 mg/kg, 6 h): 32.68% **; Inhibition (xylene-induced ear edema [4]; dose series, 100 mg/kg, 6 h (Table 6)): 43.32% *** |
| Nc1ccc(O)c(C(=O)O)c1 [mesalazine, reference compound] | – | – | 51.3 | 3.2167 ± 1.1067 | – | – |
